Earlier results in paper PMC10544023, “Oxetanes in Drug Discovery Campaigns” (Journal of Medicinal Chemistry, 2023).
Values belong to the molecule of their own block, whether it stands above or below them.

Experiments:
LRRK2 = tested on: LRRK2; design: method as in ref 49 = [49]; a Liang J.; Jakalian A.; Lambrecht M. J.; Larouche-Gauthier R.; Huestis M.; Ung M. U.; Wang X.; Yadav A.; Zbieg J. R.; Broccatelli F. Lactams as Cbl-b Inhibitors , WO Patent Appl. no. WO20221; settings: read-out: LRRK2 inhibitor IC50
KIT D816V = tested on: KIT D816V; design: method as in ref 49 = [49]; a Liang J.; Jakalian A.; Lambrecht M. J.; Larouche-Gauthier R.; Huestis M.; Ung M. U.; Wang X.; Yadav A.; Zbieg J. R.; Broccatelli F. Lactams as Cbl-b Inhibitors , WO Patent Appl. no. WO20221
PDGFRα D842V = tested on: PDGFRα D842V; design: method as in ref 49 = [49]; a Liang J.; Jakalian A.; Lambrecht M. J.; Larouche-Gauthier R.; Huestis M.; Ung M. U.; Wang X.; Yadav A.; Zbieg J. R.; Broccatelli F. Lactams as Cbl-b Inhibitors , WO Patent Appl. no. WO20221
[1] = amine nitrogen; ref 37a
hERG = tested on: hERG; design: method as in PMID 24900569; settings: ref 37a
Cbl-b = tested on: Cbl-b; design: method as in ref 49 = [49]; a Liang J.; Jakalian A.; Lambrecht M. J.; Larouche-Gauthier R.; Huestis M.; Ung M. U.; Wang X.; Yadav A.; Zbieg J. R.; Broccatelli F. Lactams as Cbl-b Inhibitors , WO Patent Appl. no. WO20221; settings: read-out: Cbl-b inhibitor IC50
c-KIT (V654A) = tested on: c-KIT (V654A); design: method as in ref 49 = [49]; a Liang J.; Jakalian A.; Lambrecht M. J.; Larouche-Gauthier R.; Huestis M.; Ung M. U.; Wang X.; Yadav A.; Zbieg J. R.; Broccatelli F. Lactams as Cbl-b Inhibitors , WO Patent Appl. no. WO20221
EZH2 = tested on: EZH2; design: method as in ref 49 = [49]; a Liang J.; Jakalian A.; Lambrecht M. J.; Larouche-Gauthier R.; Huestis M.; Ung M. U.; Wang X.; Yadav A.; Zbieg J. R.; Broccatelli F. Lactams as Cbl-b Inhibitors , WO Patent Appl. no. WO20221; settings: read-out: EZH2 inhibitor IC50
LRRK2 (WT) = tested on: LRRK2 (WT); design: method as in ref 49 = [49]; a Liang J.; Jakalian A.; Lambrecht M. J.; Larouche-Gauthier R.; Huestis M.; Ung M. U.; Wang X.; Yadav A.; Zbieg J. R.; Broccatelli F. Lactams as Cbl-b Inhibitors , WO Patent Appl. no. WO20221; settings: read-out: LRRK2 inhibitor (WT) IC50
rat = tested on: rat; design: method as in ref 33a = [33]; a Crawford J. J.; Zhang H. In ACS Symposium Series; American Chemical Society , 2019; Vol. 1332 , pp 239 – 266 . b For an overview of all clinical trials and further investigations, see: Drug Bank; settings: rat pilot study; ref 33a
dog = tested on: dog; design: method as in ref 33a = [33]; a Crawford J. J.; Zhang H. In ACS Symposium Series; American Chemical Society , 2019; Vol. 1332 , pp 239 – 266 . b For an overview of all clinical trials and further investigations, see: Drug Bank; settings: dog pilot study; ref 33a
T- versus B-cells = tested on: T- versus B-cells; design: method as in PMID 32292557; settings: selectivity of T- versus B-cells; ref 35a

- IC50 (LRRK2): < 10 nM
Structure (SMILES): O=C1NCCCOc2ccc3[nH]nc(c3c2)-c2cc(cc(N3CCC4(COC4)C3)c2)CO1

Structure (SMILES): CCN1CCN(c2ccc(Nc3nc(-c4ccc5cn[nH]c5c4)cn4ccnc34)cc2)CC1 [4-ethyl-piperazine]
- calcd pKaH (piperazine analogues of entospletinib, ref 35a): 8.0

- IC50 (KIT D816V): < 4.5 nM
- IC50 (PDGFRα D842V): < 4.5 nM
Structure (SMILES): C[C@](N)(c1ccc(F)cc1)c1cnc(N2CCN(c3ncnn4cc(-c5cnn(CC6COC6)c5)cc34)CC2)nc1 [Bluprint Medicines WO 2020/210293 A1]

- pKaH (predicted) (piperazine ring): 6.3
Structure (SMILES): C[C@H]1CN(C2COC2)CCN1c1ccc(Nc2cc(-c3ccnc(N4CCn5c(cc6c5CC(C)(C)C6)C4=O)c3CO)cn(C)c2=O)nc1 [Fenebrutinib, fenebrutinib]

- pKaH [1]: 5.0
Structure (SMILES): CCNC(=O)Nc1ccc(-c2nc3c(c(N4CCOC[C@@H]4C)n2)CCN(C2COC2)C3)cc1 [GDC-0349]
- IC50 (hERG): > 100000 nM

- IC50 (Cbl-b): 5.5 nM
Structure (SMILES): CC(C)[C@@H]1CN(C)CCN1Cc1cc2c(c(C(F)(F)F)c1)CN(c1cc(C3(Cc4nncn4C)COC3)cc(OC3CCCC3)n1)C2=O [Genentech WO 2022/169997 A1]

- IC50 (c-KIT (V654A)): 3.3 nM
Structure (SMILES): Cn1ncc(-c2ccc(CNc3cc(-c4cnc5cc(OCCN6CC7(COC7)C6)ccn45)ncn3)cc2)n1 [Merck WO 2021/013864 A1]

- IC50 (EZH2): < 10 nM
Structure (SMILES): Cc1ccc2ccc(N[C@H]3CC[C@H](CNc4ncc(C(F)(F)C(=O)NC5COC5)cn4)CC3)nc2c1Cl [Novartis WO 2022/033492 A1]

Structure (SMILES): C[C@H](C(F)F)n1cc(Nc2ncc3cc(C#N)n([C@H]4COC[C@@H]4C)c3n2)c(OC2COC2)n1 [Sanofi WO 2022/263472 A1]
- IC50 (LRRK2 (WT)): 1 nM

Structure (SMILES): CN1CCN(c2ccc(Nc3cc(-c4cccc(N5CCc6c(sc7c6CC(C)(C)C7)C5=O)c4CO)cn(C)c3=O)nc2)CC1 [compound 4]
- hepatotoxicity (rat): high hepatotoxicity
- hepatotoxicity (dog): high hepatotoxicity

Structure (SMILES): c1cn2cc(-c3ccc4cn[nH]c4c3)nc(Nc3ccc(N4CCN(C5COC5)CC4)cc3)c2n1 [oxetane on the 4-position]
- T/B ratio (T- versus B-cells): 10
